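GI50 is the concentration that inhibits growth by half. TGI marks complete inhibition of growth.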
Tests used:
Test in all cases: DTP human tumour cell line panel, 384-well format
[1] = test system: HCT-15 colon
[2] = test system: MALME-3M melanoma
[3] = test system: SF-268 CNS
[4] = test system: SN12C renal
[5] = test system: IGROV1 ovarian
[6] = test system: CCRF-CEM leukemia
[7] = test system: EKVX NSCLC
[8] = test system: NCI-H522 lung
[9] = test system: A549 NSCLC
[10] = test system: SK-MEL-5 melanoma
[11] = test system: BT-549 breast
[12] = test system: OVCAR-3 ovarian
[13] = test system: K-562 leukemia
[14] = test system: HS 578T breast
[15] = test system: SK-MEL-28 melanoma
[16] = test system: UACC-62 melanoma
[17] = test system: NCI/ADR-RES ovarian
[18] = test system: OVCAR-4 ovarian
[19] = test system: RPMI-8226 leukemia
[20] = test system: TK-10 renal
[21] = test system: RXF 393 renal
[22] = test system: PC-3 prostate
[23] = test system: ACHN renal
[24] = test system: MDA-MB-435 melanoma
[25] = test system: SW-620 colon
[26] = test system: NCI-H23 lung
[27] = test system: A498 renal
[28] = test system: HL-60(TB) leukemia
[29] = test system: MDA-MB-468 breast
[30] = test system: U251 glioblastoma
[31] = test system: 786-0 renal
[32] = test system: MOLT-4 leukemia
[33] = test system: SR leukemia
[34] = test system: HCC-2998 colon
[35] = test system: SF-539 CNS
[36] = test system: HCT-116 colon
[37] = test system: OVCAR-8 ovarian
[38] = test system: KM12 colon
[39] = test system: HOP-62 NSCLC
[40] = test system: OVCAR-5 ovarian
[41] = test system: UACC-257 melanoma
[42] = test system: HOP-92 NSCLC
[43] = test system: SF-295 CNS
[44] = test system: SK-OV-3 ovarian
[45] = test system: SNB-75 CNS
[46] = test system: NCI-H226 lung
[47] = test system: M14 melanoma

Compound: C=CC(=O)N[C@H]1CCOC[C@H]1Nc1ncc2cc(-c3c(Cl)c(OC)cc(OC)c3Cl)ccc2n1
- GI50 [1]: 11.4 µM
- TGI [1]: 35.5 µM
- GI50 [2]: > 53.7 µM
- TGI [2]: > 100 µM
- GI50 [3]: 4.16 µM
- TGI [3]: 23.9 µM
- GI50 [4]: 15.4 µM
- TGI [4]: 75 µM
- GI50 [5]: 17.9 µM
- TGI [5]: 63.5 µM
- GI50 [6]: 9.81 µM
- TGI [6]: 22.2 µM
- GI50 [7]: 12.3 µM
- TGI [7]: 39.6 µM
- GI50 [8]: 13.9 µM
- TGI [8]: 32.2 µM
- GI50 [9]: 17.3 µM
- TGI [9]: 74.2 µM
- GI50 [10]: 10.9 µM
- TGI [10]: 23.6 µM
- GI50 [11]: 4.77 µM
- TGI [11]: 19.5 µM
- GI50 [12]: 13.9 µM
- TGI [12]: 34 µM
- GI50 [13]: 7.1 µM
- TGI [13]: 26.9 µM
- GI50 [14]: 12 µM
- TGI [14]: 27.9 µM
- GI50 [15]: 35.6 µM
- TGI [15]: > 100 µM
- GI50 [16]: 10.7 µM
- TGI [16]: 25.1 µM
- GI50 [17]: 12.9 µM
- TGI [17]: 30.8 µM
- GI50 [18]: 14.9 µM
- TGI [18]: 54.1 µM
- GI50 [19]: 4.12 µM
- TGI [19]: 15 µM
- GI50 [20]: 20.9 µM
- TGI [20]: > 95.6 µM
- GI50 [21]: 8.65 µM
- TGI [21]: 26.2 µM
- GI50 [22]: 20.3 µM
- TGI [22]: 66.2 µM
- GI50 [23]: 30.6 µM
- TGI [23]: > 100 µM
- GI50 [24]: > 64.3 µM
- TGI [24]: > 100 µM
- GI50 [25]: 19 µM
- TGI [25]: > 52.5 µM
- GI50 [26]: 16.9 µM
- TGI [26]: 63.9 µM
- GI50 [27]: 10.6 µM
- TGI [27]: 40.2 µM
- GI50 [28]: 9.62 µM
- TGI [28]: 22.7 µM
- GI50 [29]: 3.37 µM
- TGI [29]: 13.9 µM
- GI50 [30]: 15 µM
- TGI [30]: 36.1 µM
- GI50 [31]: 16.5 µM
- TGI [31]: 50.1 µM
- GI50 [32]: 2.59 µM
- TGI [32]: 14.8 µM
- GI50 [33]: 5.39 µM
- TGI [33]: 19 µM
- GI50 [34]: 16.2 µM
- TGI [34]: 32.5 µM
- GI50 [35]: 13.5 µM
- TGI [35]: 28.2 µM
- GI50 [36]: 15.1 µM
- TGI [36]: 33.6 µM
- GI50 [37]: 16 µM
- TGI [37]: 35.1 µM
- GI50 [38]: 19.2 µM
- TGI [38]: 47.7 µM
- GI50 [39]: 20.4 µM
- TGI [39]: 57.2 µM
- GI50 [40]: 27.5 µM
- TGI [40]: > 88.4 µM
- GI50 [41]: 13.9 µM
- TGI [41]: 38.8 µM
- GI50 [42]: 7.37 µM
- TGI [42]: 28.2 µM
- GI50 [43]: 28.1 µM
- TGI [43]: > 86.7 µM
- GI50 [44]: 19.4 µM
- TGI [44]: 63.4 µM
- GI50 [45]: 6.99 µM
- TGI [45]: 33.5 µM
- GI50 [46]: 4.55 µM
- TGI [46]: 20.8 µM
- GI50 [47]: 16.8 µM
- TGI [47]: > 69.2 µM
